Patent US4400199A, “Thiolcarbamate compounds and their use as herbicides” (priority 1981, dated 1983)
≈ marks a conversion by molar mass, not a printed value.

Key:
[1] = tested on: barnyard grass (Echinochloa crus-galli); assay: Experiment 1: herbicidal effects against barnyard grass (pot test, emulsifiable concentrate); type: in vivo; conditions: for herbicidal activity (barnyard grass): 25 days
barnyard grass = assay: Experiment 2: herbicidal effects against barnyard grass (pot test, granules); type: in vivo, Echinochloa crus-galli; conditions: 2.5 leaf-stage, 25 days
broad-leaf weeds = assay: Experiment 2: herbicidal effects against broad-leaf weeds (pot test, granules); type: in vivo; conditions: 25 days
[2] = tested on: Hotarui (Scirpus juncoides); assay: Experiment 2: herbicidal effects against Hotarui (pot test, granules); type: in vivo; conditions: 25 days
[3] = tested on: Mizugayatsuri (Cyperus serotinus); assay: Experiment 2: herbicidal effects against Mizugayatsuri (pot test, granules); type: in vivo; conditions: 25 days
[4] = Experiment 3: acute toxicity to fish; type: in vivo, Black-carp fry; conditions: carp, water
Description: With respect to the compounds according to the present invention and the comparative compounds (Compound 10, Compound 12 and Compound 13), there were conducted tests on acute toxicity to carps.
In 25-liter water tanks made of glass was charged 20 liters of water. 12 Black-carp fry were released to each of the water tanks and bred while feeding for 7 days. Then, the whole quantity of water in each of the tanks was replaced with fresh water, and feeding to the carps was stopped. After three days, a prescribed amount of 1 weight % solution of a test compound in acetone was added to water in the water tank.
The number of survival fish in each tank was counted after 24 hours, 48 hours and 96 hours, successively.
The TLm (median tolerance limit=lethal concentration 50%) was determined by the Doudorff's method (Sewage & Ind. Wastes 23 (1951) 1380-1397).

[5] = Experiment 4: subacute toxicity to fish; type: in vivo, 2-year-old carps; conditions: carp, water; 0.2 ppm; 3 weeks; read-out: Survival rate after 3 weeks
Description: (§1) With respect to the compounds according to the present invention and the comparative compounds listed in Table 4, there were conducted tests on subacute toxicity to 2-year-old carps having an average weight of 20 g.
(§2) Ten 2-year-old carps were released in each of 25-liter water tanks equipped with an air-blowing apparatus and acclimatized to the surroundings while feeding for 10 days. Water in each of the water tanks was continuously replaced with fresh water so that the residence time of water in the water tanks is 6 hours. Each test compound was added to a predetermined quantity of supply water to prepare a 0.2 ppm aqueous solution of each compound, and each of the aqueous solutions was continuously added to the water in the tank. After three weeks, the hematocrit values of all the survival carps were determined. The hematocrit value used herein is intended to mean a volume percentage of erythrocyte contained in the blood.

carps = assay: Experiment 4: subacute toxicity to fish; type: in vivo, 2-year-old carps; conditions: 0.2 ppm; 3 weeks
Description: as §1, §2

paddy field weeds = assay: Experiment 2: herbicidal effects against paddy field weeds, overall; type: in vivo; conditions: compared with Molinate (Compound 13)
rice plants = conditions: in vivo

CC1CCCCN1C(=O)SCCCCl (stereo not shown) [Compound 12, reference compound]
herbicidal activity (barnyard grass) ([1]; 1.5 leaf-stage of barnyard grass, 150 g/10a.): 5 (more than 90%) | herbicidal activity (barnyard grass) ([1]; 1.5 leaf-stage of barnyard grass, 300 g/10a.): 5 (more than 90%) | herbicidal activity (barnyard grass) ([1]; 1.5 leaf-stage of barnyard grass, 600 g/10a.): 5 (more than 90%) | herbicidal activity (barnyard grass) ([1]; 3 leaf-stage of barnyard grass, 150 g/10a.): 5 (more than 90%) | herbicidal activity (barnyard grass) ([1]; 3 leaf-stage of barnyard grass, 300 g/10a.): 5 (more than 90%) | herbicidal activity (barnyard grass) ([1]; 3 leaf-stage of barnyard grass, 600 g/10a.): 5 (more than 90%) | herbicidal activity (in words) ([1]; barnyard grass): sufficient herbicidal activities | herbicidal activity (barnyard grass) (barnyard grass; 150 g/10a.): 5 (more than 90%) | herbicidal activity (barnyard grass) (barnyard grass; 300 g/10a.): 5 (more than 90%) | herbicidal activity (barnyard grass) (barnyard grass; 600 g/10a.): 5 (more than 90%) | Herbicidal activity broad-leaf weeds (broad-leaf weeds; 150 g/10a.): 5 (more than 90%) | Herbicidal activity broad-leaf weeds (broad-leaf weeds; 300 g/10a.): 5 (more than 90%) | Herbicidal activity broad-leaf weeds (broad-leaf weeds; 600 g/10a.): 5 (more than 90%) | Herbicidal activity Hotarui (Scirpus juncoides) ([2]; 150 g/10a.): 4 (70 to 89%) | Herbicidal activity Hotarui (Scirpus juncoides) ([2]; 300 g/10a.): 5 (more than 90%) | Herbicidal activity Hotarui (Scirpus juncoides) ([2]; 600 g/10a.): 5 (more than 90%) | Herbicidal activity Mizugayatsuri (Cyperus serotinus) ([3]; 150 g/10a.): 4 (70 to 89%) | Herbicidal activity Mizugayatsuri (Cyperus serotinus) ([3]; 300 g/10a.): 4 (70 to 89%) | Herbicidal activity Mizugayatsuri (Cyperus serotinus) ([3]; 600 g/10a.): 5 (more than 90%) | LC50 at 24 h ([4]; 24 hrs, read-out: Median lethal concentration TLm (24hrs)): 1 µg/mL (≈ 4.24 µM) | LC50 at 48 h ([4]; 48 hrs, read-out: Median lethal concentration TLm (48hrs)): < 0.5 µg/mL | survival at 504 h [5]: 70% | Average Hematocrit Value of survival fish (carps): 19% | subacute toxicity to carps (in words) (carps): high subacute toxicity to carps | survival of carps (in words) (carps): extremely low | symptoms of anemia in carps (in words) (carps): remarkable symptons of anemia | herbicidal activity (in words) (paddy field weeds): excellent herbicidal activities | harmful effects to rice plants (in words) (rice plants): without harmful effects to rice plants
